From PubChem BioAssay (NCI)
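Each compound was tested at five concentrations against cells in 96-well plates for 48 hours. Here, GI50 denotes the concentration required for 50% inhibition of growth. TGI: concentration producing complete growth inhibition.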

How the values were obtained:
Experiment in all cases: growth of human tumour cells (NCI), 48 h
[1] = system: T-47D breast
[2] = system: RXF 393 renal
[3] = system: HCC-2998 colon
[4] = system: HS 578T breast
[5] = system: SW-620 colon
[6] = system: M14 melanoma
[7] = system: HOP-62 NSCLC
[8] = system: DU-145 prostate
[9] = system: EKVX NSCLC
[10] = system: RPMI-8226 leukemia
[11] = system: NCI-H522 lung
[12] = system: SK-MEL-28 melanoma
[13] = system: MCF7 breast
[14] = system: MDA-MB-231 breast
[15] = system: BT-549 breast
[16] = system: K-562 leukemia
[17] = system: SK-MEL-5 melanoma
[18] = system: IGROV1 ovarian
[19] = system: TK-10 renal
[20] = system: HCT-116 colon
[21] = system: LOX IMVI melanoma
[22] = system: A549 NSCLC
[23] = system: NCI-H460 lung
[24] = system: MALME-3M melanoma
[25] = system: HOP-92 NSCLC
[26] = system: SK-MEL-2 melanoma
[27] = system: MOLT-4 leukemia
[28] = system: KM12 colon
[29] = system: OVCAR-5 ovarian
[30] = system: NCI/ADR-RES ovarian
[31] = system: CCRF-CEM leukemia
[32] = system: A498 renal
[33] = system: OVCAR-3 ovarian
[34] = system: SNB-19 CNS
[35] = system: UACC-257 melanoma
[36] = system: CAKI-1 renal
[37] = system: MDA-MB-435
[38] = system: HCT-15 colon
[39] = system: UACC-62 melanoma
[40] = system: NCI-H226 lung
[41] = system: SF-539 CNS
[42] = system: 786-0 renal
[43] = system: OVCAR-8 ovarian
[44] = system: SNB-75 CNS
[45] = system: SF-268 CNS
[46] = system: U251 CNS
[47] = system: SK-OV-3 ovarian
[48] = system: SN12C renal
[49] = system: PC-3 prostate
[50] = system: OVCAR-4 ovarian
[51] = system: COLO 205 colon
[52] = system: HT29 colon
[53] = system: SR leukemia
[54] = system: ACHN renal
[55] = system: SF-295 CNS
[56] = system: UO-31 renal
[57] = system: HL-60(TB) leukemia

CS(=O)(=O)c1nccc(-c2c(-c3ccc(F)c(OCCc4ccccc4)c3)nc3sccn23)n1
GI50 [1]: 10.3 µM | TGI [1]: 25.7 µM | GI50 [2]: 14.4 µM | TGI [2]: 27.6 µM | GI50 [3]: 15.4 µM | TGI [3]: 30.2 µM | GI50 [4]: 17.2 µM | TGI [4]: 42.9 µM | GI50 [5]: 18.4 µM | TGI [5]: 35.8 µM | GI50 [6]: 17.7 µM | TGI [6]: 32.1 µM | GI50 [7]: 17 µM | TGI [7]: 32.9 µM | GI50 [8]: 4.3 µM | TGI [8]: 14.8 µM | GI50 [9]: 15.8 µM | TGI [9]: 29.2 µM | GI50 [10]: 20.5 µM | TGI [10]: 55 µM | GI50 [11]: 13.5 µM | TGI [11]: 30.7 µM | GI50 [12]: 15.2 µM | TGI [12]: 28.9 µM | GI50 [13]: 4.29 µM | TGI [13]: 18.7 µM | GI50 [14]: 17.6 µM | TGI [14]: 34.4 µM | GI50 [15]: 15.6 µM | TGI [15]: 30.1 µM | GI50 [16]: 20.4 µM | TGI [16]: 68.3 µM | GI50 [17]: 17.2 µM | TGI [17]: 31.8 µM | GI50 [18]: 15.4 µM | TGI [18]: 33.5 µM | GI50 [19]: 15.4 µM | TGI [19]: 29.7 µM | GI50 [20]: 16.3 µM | TGI [20]: 29.8 µM | GI50 [21]: 14.9 µM | TGI [21]: 31.8 µM | GI50 [22]: 17.1 µM | TGI [22]: 33.5 µM | GI50 [23]: 14 µM | TGI [23]: 30 µM | GI50 [24]: 18.2 µM | TGI [24]: 33.1 µM | GI50 [25]: 8.62 µM | TGI [25]: 22.1 µM | GI50 [26]: 15.8 µM | TGI [26]: 30.5 µM | GI50 [27]: 17.5 µM | TGI [27]: 39.7 µM | GI50 [28]: 17.3 µM | TGI [28]: 32.6 µM | GI50 [29]: 19.2 µM | TGI [29]: 44.8 µM | GI50 [30]: 16.8 µM | TGI [30]: 34.3 µM | GI50 [31]: 19.1 µM | TGI [31]: 45.6 µM | GI50 [32]: 11.8 µM | TGI [32]: 24.3 µM | GI50 [33]: 15.4 µM | TGI [33]: 29 µM | GI50 [34]: 16.2 µM | TGI [34]: 31.6 µM | GI50 [35]: 15 µM | TGI [35]: 29.6 µM | GI50 [36]: 15.2 µM | TGI [36]: 28.5 µM | GI50 [37]: 16.7 µM | TGI [37]: 31 µM | GI50 [38]: 16.2 µM | TGI [38]: 32.2 µM | GI50 [39]: 17.4 µM | TGI [39]: 36.7 µM | GI50 [40]: 14.1 µM | TGI [40]: 27.8 µM | GI50 [41]: 16.3 µM | TGI [41]: 30.3 µM | GI50 [42]: 16.5 µM | TGI [42]: 30.8 µM | GI50 [43]: 16.7 µM | TGI [43]: 33.2 µM | GI50 [44]: 11.8 µM | TGI [44]: 24 µM | GI50 [45]: 16.4 µM | TGI [45]: 33.1 µM | GI50 [46]: 16.6 µM | TGI [46]: 30.2 µM | GI50 [47]: 19.9 µM | TGI [47]: 45.2 µM | GI50 [48]: 15.9 µM | TGI [48]: 34.4 µM | GI50 [49]: 17.1 µM | TGI [49]: 35.6 µM | GI50 [50]: 15.4 µM | TGI [50]: 29 µM | GI50 [51]: 19.1 µM | TGI [51]: 37.7 µM | GI50 [52]: 16.7 µM | TGI [52]: 33.8 µM | GI50 [53]: 15.6 µM | TGI [53]: 40.6 µM | GI50 [54]: 15.4 µM | TGI [54]: 28.7 µM | GI50 [55]: 18.5 µM | TGI [55]: 33.3 µM | GI50 [56]: 14.1 µM | TGI [56]: 27.1 µM | GI50 [57]: 5.17 µM | TGI [57]: 22.2 µM
